Data reported in patent US6613322B2, “Method for treating a subject suffering from conditions associated with an extracellular zinc sphingomyelinase” (The Trustees of Columbia University in the City of New York, priority 1997, dated 2003).

Assays:
L-SMase of HUVECs = assay: Cytokine regulation of L-SMase activity in HUVEC cell homogenates; type: cell-based, human; settings: cytokine-treated endothelial cells
Method: FIGS. 23A-B. Cytokine regulation of S- and L-SMase of HUVECs. […] Conditioned media (FIG. 23A) and cell homogenates (FIG. 23B) from these cells were then assayed for SMase activity in the presence or absence of 0.1 mM ZnCl2, respectively.
Cells—Primary cultures of HUVEC were obtained from fresh umbilical cords and maintained in cell culture as previously described (31). Human coronary artery endothelial cells from a donor were purchased from Clonetics Corp. (San Diego, Calif.; cat. # CC-2585, Strain #3033). The cells were grown in endothelial basal media (EBM) (Clonetics) supplemented with 10% HI-FES; 10 μg endothelial cell growth supplement/ml (Sigma; cat. # E0760) and 50 μg gentamicin/ml. Primary cultures of bovine aortic endothelial, cells were established and subcultured as described previously (32). […]

ASM (SMase) mRNA = assay: Northern blot of SMase mRNA in HUVECs; type: cell-based, human; settings: IL-1β 5 ng/ml, 18 h
Method: FIG. 24. Northern blot analysis of HUVECs incubated in the absence or presence of IL-1β. HUVECs were incubated for 18 h in DMEM, 0.2% BSA alone (Con) or containing human recombinant interleukin-1β (5 ng/ml) (IL1β).
Northern Blot of SMase mRNA—Total cellular RNA was isolated from HUVECs using RNAzol B (Tel-Test. Inc., Friendswood, Tex.). Approximately 10 μg of RNA was separated on a 1% agarose gel and blotted onto a nylon membrane. The membrane was hybridized in a QuikHyb hybridization solution (Stratagene) with a 1.6-kB EcoRI-XhoI fragment of human ASM cDNA (41) that was labeled with ^32P by the random-priming Procedure (GIBCO-BRL®). The amount of RNA loaded for each condition was normalized using a probe to glyceraldehyde-3-phosphate dehydrogenase. The relative intensities of the mRNA bands were determined by densitometric scanning of the autoradiograms using a Molecular Dynamics Computing Densitometer (model 300A) with Image-Quant software.

L-SMase = biological target: T1, L-SMase (Homo sapiens, UniProt P17405); assay: SMase assay of HUVEC cell homogenate, zinc-dependency; type: biochemical
T1 construct: endogenous in cells; host or cells: HUVEC, sonicated cell homogenate
T1 sequence (P17405 47-631): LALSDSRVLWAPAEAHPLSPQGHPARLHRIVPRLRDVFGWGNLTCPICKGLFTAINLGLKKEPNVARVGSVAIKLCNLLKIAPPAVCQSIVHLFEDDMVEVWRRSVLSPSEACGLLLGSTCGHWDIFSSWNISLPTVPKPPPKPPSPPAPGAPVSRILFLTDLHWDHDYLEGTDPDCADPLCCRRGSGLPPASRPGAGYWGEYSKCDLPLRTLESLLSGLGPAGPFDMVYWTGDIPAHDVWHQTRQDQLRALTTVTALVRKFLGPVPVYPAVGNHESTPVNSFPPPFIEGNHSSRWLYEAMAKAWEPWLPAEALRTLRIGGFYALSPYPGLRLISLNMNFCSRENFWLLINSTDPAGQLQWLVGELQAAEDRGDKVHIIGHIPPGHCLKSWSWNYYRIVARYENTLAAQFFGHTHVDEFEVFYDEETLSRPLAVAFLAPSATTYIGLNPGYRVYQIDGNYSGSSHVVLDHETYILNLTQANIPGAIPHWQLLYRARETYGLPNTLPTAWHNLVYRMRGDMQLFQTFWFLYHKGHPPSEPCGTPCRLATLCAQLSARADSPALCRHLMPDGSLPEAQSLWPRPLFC
Method: Smase Assay—As previously described (15), the standard 200-μl assay mixture consisted of up to 40 μl of sample (conditioned media or homogenized cells; see above, and a volume of assay buffer (0.1 M sodium acetate, pH 5.0) to bring the volume to 160 μl. The reaction was initiated by the addition of 40 μl substrate (50 pmol [^3H]sphingomyelin) in 0.25 M sucrose containing 3% Triton X-100 (final concentration of Triton X-100 in the 200-μl assay mix=0.6%). When added, the final concentrations of EDTA and Zn^2+ were 5 mM and 0.1 mM, respectively, unless indicated otherwise. The assay mixtures were incubated at 37° C. for no longer than 3 h and then extracted by the method of Bligh and Dyer (37); the lower, organic phase was harvested, evaporated under N2, and fractionated by TLC using chloroform:methanol (95:5). The ceramide spots were scraped and directly counted to quantify [^3H]ceramide. Typically, our assay reactions contained approximately 20 μg of cellular homogenate protein and a volume of conditioned media derived from a quantity of cells equivalent to approximately 50 μg of cellular protein.

Row | increase in SMase mRNA normalized for GAPDH mRNA (ASM (SMase) mRNA) [%] | increase of enzymatic activity of L-SMase by Zn2+ (L-SMase; L-SMase from IL-1β-treated HUVECs) [fold] | increase of enzymatic activity of L-SMase by Zn2+ (L-SMase; L-SMase from untreated HUVECs) [fold] | Compound | L-SMase (lysosomal SMase) activity (L-SMase of HUVECs)
1 | ~40 |  |  | IL-1β: human recombinant interleukin-1β | decreased
2 |  | 1.13±0.08 | 1.09±0.04 | [Cl-].[Cl-].[Zn+2] [Zn^2+, ZnCl2] | 
